MIC data for twelve molecules are collected here from ChEMBL document CHEMBL1139614, “Synthesis and antibacterial activity of novel (un)substituted benzotriazolyl oxazolidinone derivatives” (2005).

Experiment [1] deals with Enterococcus faecalis. Nature of the experiment: In vitro minimum inhibitory concentration against Enterococcus faecalis (ATCC 29212 and 21777); NA= Not active in preliminary screening up to 50 ug/mL. The format is functional, organism-based.
For experiment [2], the system named is Enterococcus faecium. Description: In vitro minimum inhibitory concentration against Enterococcus faecium (6A-VRE); NA= Not active in preliminary screening up to 50 ug/mL. The format is functional, organism-based.
The subject of experiment [3] is Enterococcus faecalis. Nature of the experiment: In vitro minimum inhibitory concentration against Enterococcus faecalis [(VRE) ATCC 346-VRE and 5B-VRE]; NA= Not active in preliminary screening up to 50 ug/mL. The format is functional, organism-based.
Experiment [4] has as its system Pseudomonas aeruginosa. Nature of the experiment: In vitro minimum inhibitory concentration against Pseudomonas aeruginosa (ATCC 27853); NA= Not active in preliminary screening up to 50 ug/mL. The class given is functional, organism-based.
The test system of experiment [5] is Staphylococcus epidermidis. Nature of the experiment: In vitro minimum inhibitory concentration against Staphylococcus epidermidis (ATCC 12228); NA= Not active in preliminary screening up to 50 ug/mL. The format is functional, organism-based.
Experiment [6] concerns Staphylococcus saprophyticus. Nature of the experiment: In vitro minimum inhibitory concentration against Staphylococcus saprophyticus (ATCC 15305); NA= Not active in preliminary screening up to 50 ug/mL. The format is functional, organism-based.
Experiment [7] relates to Bacillus pumilus. Nature of the experiment: In vitro minimum inhibitory concentration against Bacillus pumilus (ATCC 14884); NA= Not active in preliminary screening up to 50 ug/mL. The class given is functional, organism-based.
Experiment [8] concerns Escherichia coli. Nature of the experiment: In vitro minimum inhibitory concentration against Escherichia coli (ATCC 25922); NA= Not active in preliminary screening up to 50 ug/mL. The format is functional, organism-based.
The test system of experiment [9] is Staphylococcus epidermidis. Nature of the experiment: In vitro minimum inhibitory concentration against methicillin-resistant Staphylococcus epidermidis (ATCC 23760); NA= Not active in preliminary screening up to 50 ug/mL. The format is functional, organism-based.
Experiment [10] deals with Staphylococcus aureus. Description: In vitro minimum inhibitory concentration against Staphylococcus aureus (ATCC 25923 and 29213); NA= Not active in preliminary screening up to 50 ug/mL. The class given is functional, organism-based.
Experiment [11] deals with Staphylococcus aureus. Nature of the experiment: In vitro minimum inhibitory concentration against methicillin-resistant Staphylococcus aureus (ST450, ATCC 15187, ICH 1 and 37); NA= Not active in preliminary screening up to 50 ug/mL. The format is functional, organism-based.
Experiment [12] concerns Salmonella enterica subsp. enterica serovar Abony. Nature of the experiment: In vitro minimum inhibitory concentration against Salmonella abony (NCTC 6017); NA= Not active in preliminary screening up to 50 ug/mL. The class given is functional, organism-based.
Experiment [13] relates to Enterococcus faecium. Description: In vitro minimum inhibitory concentration against Enterococcus faecium (6A-VRE). The class given is functional.
Experiment [14] has as its system Staphylococcus aureus. Description: In vitro minimum inhibitory concentration against methicillin-resistant Staphylococcus aureus (ST450, ATCC 15187, ICH 1 and 37). The class given is functional.
Experiment [15] deals with Staphylococcus epidermidis. Nature of the experiment: In vitro minimum inhibitory concentration against Staphylococcus epidermidis (ATCC 12228). The class given is functional.
The subject of experiment [16] is Staphylococcus epidermidis. Description: In vitro minimum inhibitory concentration against methicillin-resistant Staphylococcus epidermidis (ATCC 23760). The format is functional.
Experiment [17] has as its system Staphylococcus aureus. Description: In vitro minimum inhibitory concentration against Staphylococcus aureus (ATCC 25923 and 29213). The class given is functional.
For experiment [18], the system named is Staphylococcus saprophyticus. Nature of the experiment: In vitro minimum inhibitory concentration against Staphylococcus saprophyticus (ATCC 15305). The class given is functional.
For experiment [19], the system named is Escherichia coli. Nature of the experiment: In vitro minimum inhibitory concentration against Escherichia coli (ATCC 25922). The class given is functional.
Experiment [20] deals with Pseudomonas aeruginosa. Nature of the experiment: In vitro minimum inhibitory concentration against Pseudomonas aeruginosa (ATCC 27853). The format is functional.
Experiment [21] relates to Enterococcus faecalis. Description: In vitro minimum inhibitory concentration against Enterococcus faecalis (ATCC 29212 and 21777). The format is functional.
For experiment [22], the system named is Enterococcus faecalis. Nature of the experiment: In vitro minimum inhibitory concentration against Enterococcus faecalis [(VRE) ATCC 346-VRE and 5B-VRE]. The format is functional.
Experiment [23] relates to Salmonella enterica subsp. enterica serovar Abony. Description: In vitro minimum inhibitory concentration against Salmonella abony (NCTC 6017). The format is functional.
The subject of experiment [24] is Bacillus pumilus. Nature of the experiment: In vitro minimum inhibitory concentration against Bacillus pumilus (ATCC 14884). The format is functional.
The test system of experiment [25] is Staphylococcus epidermidis. Description: In vitro minimum inhibitory concentration against Staphylococcus epidermidis (ATCC 12228); Range= 0.125-0.25 ug/mL. The class given is functional.
Experiment [26] has as its system Enterococcus faecalis. Nature of the experiment: In vitro minimum inhibitory concentration against Enterococcus faecalis [(VRE) ATCC 346-VRE and 5B-VRE]; Range= 0.125-0.25 ug/mL. The format is functional.
Experiment [27] has as its system Staphylococcus aureus. Description: In vitro minimum inhibitory concentration against methicillin-resistant Staphylococcus aureus (ST450, ATCC 15187, ICH 1 and 37); Range= 0.125-0.25 ug/mL. The class given is functional.
Experiment [28] relates to Staphylococcus aureus. Description: In vitro minimum inhibitory concentration against Staphylococcus aureus (ATCC 25923 and 29213); Range 2-4 ug/mL. The format is functional.

In brackets after ≈: the same amount, converted by molar mass. Activity calls are given as the source filed them. The rule behind the calls is not given here.

In general, MIC refers to the least concentration at which growth counts as inhibited. As for `O=C1O[C@@H](C/N=C(\S)OCC(F)(F)F)CN1c1ccc(-n2nnc3ccccc32)c(F)c1`, the MIC entry (in the experiment on Enterococcus faecalis [1]; with Enterococcus faecium [2]; in the experiment on Enterococcus faecalis [3]; with Pseudomonas aeruginosa [4]; in experiment [5]; in experiment [6]) was “inactive” each time. Further, the MIC entry (with Bacillus pumilus [7]; in the experiment with Escherichia coli [8]; in experiment [9]; in the experiment with Staphylococcus aureus [10]; with Staphylococcus aureus [11]; in experiment [12]) was “inactive” in each case.

For the molecule `COC(=O)c1ccc2c(c1)nnn2-c1ccc(N2C[C@H](C/N=C(\S)OC)OC2=O)cc1F`, the minimum inhibitory concentration (MIC) against Enterococcus faecium [13] amounted to 0.25 µg/mL (≈ 0.544 µM); with Staphylococcus aureus [14], 0.25 µg/mL (≈ 0.544 µM); in [15], 0.25 µg/mL (≈ 0.544 µM); in experiment [16] it was 0.125 µg/mL (≈ 0.272 µM); with Staphylococcus aureus [17], 0.25 µg/mL (≈ 0.544 µM); in experiment [18] it was 0.25 µg/mL (≈ 0.544 µM). Further, the minimum inhibitory concentration (MIC) with Escherichia coli [19] is above 16 µg/mL; with Pseudomonas aeruginosa [20], above 16 µg/mL; against Enterococcus faecalis [21], 0.125 µg/mL (≈ 0.272 µM); against Enterococcus faecalis [22], 0.25 µg/mL (≈ 0.544 µM).

Regarding `CCN(CC)CC/N=C(\S)NC[C@H]1CN(c2ccc(-n3nnc4ccccc43)c(F)c2)C(=O)O1`, the MIC (against Enterococcus faecium [13]; with Staphylococcus aureus [14]; in experiment [15]; in experiment [16]; in the experiment on Staphylococcus aureus [17]; in the experiment with Escherichia coli [19]) was above 16 µg/mL each time. Moreover, the MIC (in experiment [23]; against Pseudomonas aeruginosa [20]; with Enterococcus faecalis [21]; against Enterococcus faecalis [22]; against Bacillus pumilus [24]) was above 16 µg/mL each time.

Take `N=C(S)NC[C@H]1CN(c2ccc(-n3nnc4ccccc43)c(F)c2)C(=O)O1`: the MIC against Enterococcus faecium [13] is 16 µg/mL (≈ 41.4 µM); against Staphylococcus aureus [14], 0.25 µg/mL (≈ 0.647 µM); in [15] it was 0.25 µg/mL (≈ 0.647 µM); in experiment [16], 0.125 µg/mL (≈ 0.323 µM); against Staphylococcus aureus [17], 0.25 µg/mL (≈ 0.647 µM); against Escherichia coli [19] it was above 16 µg/mL. For the same molecule, the MIC in experiment [23] was above 16 µg/mL; in the experiment with Pseudomonas aeruginosa [20] it was above 16 µg/mL; in the experiment with Enterococcus faecalis [21], 0.25 µg/mL (≈ 0.647 µM); in the experiment on Enterococcus faecalis [22], 0.25 µg/mL (≈ 0.647 µM); in the experiment on Bacillus pumilus [24], 0.25 µg/mL (≈ 0.647 µM).

For `O=C1O[C@@H](C/N=C(\S)OCCO)CN1c1ccc(-n2nnc3ccccc32)c(F)c1`, the MIC (in the experiment on Enterococcus faecium [13]; in the experiment on Staphylococcus aureus [14]; in [15]; in experiment [16]; in the experiment on Staphylococcus aureus [17]; with Escherichia coli [19]) was above 16 µg/mL each time. Besides, the MIC (in [23]; in the experiment with Pseudomonas aeruginosa [20]; in the experiment with Enterococcus faecalis [21]; in the experiment on Enterococcus faecalis [22]; against Bacillus pumilus [24]) was above 16 µg/mL throughout.

With `COC(=O)c1ccc2c(c1)nnn2-c1ccc(N2C[C@H](C/N=C(/N)S)OC2=O)cc1F`, the MIC is 0.25 µg/mL (≈ 0.562 µM) in the experiment on Enterococcus faecium [13]; 0.25 µg/mL (≈ 0.562 µM) in experiment [25]; 0.125 µg/mL (≈ 0.281 µM) in experiment [16]; 0.25 µg/mL (≈ 0.562 µM) with Staphylococcus aureus [17]; 0.25 µg/mL (≈ 0.562 µM) in experiment [18]; above 16 µg/mL in the experiment on Escherichia coli [19]. For the same molecule, the MIC is 0.25 µg/mL (≈ 0.562 µM) in the experiment on Enterococcus faecalis [26], 0.25 µg/mL (≈ 0.562 µM) in the experiment with Staphylococcus aureus [27], above 16 µg/mL against Pseudomonas aeruginosa [20] and 0.125 µg/mL (≈ 0.281 µM) against Enterococcus faecalis [21].

Turning to `CC(=O)NC[C@H]1CN(c2ccc(N3CCOCC3)c(F)c2)C(=O)O1` [LINEZOLID], the MIC is 2 µg/mL (≈ 5.93 µM) against Enterococcus faecium [13]; 2 µg/mL (≈ 5.93 µM) in [15]; 2 µg/mL (≈ 5.93 µM) in [16]; above 16 µg/mL in experiment [18]; above 16 µg/mL in the experiment on Escherichia coli [19]; above 16 µg/mL in experiment [23]. The MIC in the experiment on Pseudomonas aeruginosa [20] is above 16 µg/mL.

Take `CN(C)CCO/C(S)=N/C[C@H]1CN(c2ccc(-n3nnc4ccccc43)c(F)c2)C(=O)O1`: the MIC (in the experiment on Enterococcus faecium [13]; in the experiment with Staphylococcus aureus [14]; in [15]; in experiment [16]; against Staphylococcus aureus [17]; in experiment [18]) was above 16 µg/mL in each case. Besides, the MIC (against Escherichia coli [19]; in experiment [23]; with Pseudomonas aeruginosa [20]; against Enterococcus faecalis [21]; in the experiment with Enterococcus faecalis [22]; in the experiment with Bacillus pumilus [24]) was above 16 µg/mL throughout.

As for `O=C1O[C@@H](CN/C(S)=N/CCO)CN1c1ccc(-n2nnc3ccccc32)c(F)c1`, the MIC is 1 µg/mL (≈ 2.32 µM) in the experiment with Enterococcus faecium [13]; 2 µg/mL (≈ 4.65 µM) with Staphylococcus aureus [14]; 2 µg/mL (≈ 4.65 µM) in experiment [15]; 0.5 µg/mL (≈ 1.16 µM) in experiment [16]; above 16 µg/mL with Escherichia coli [19]; above 16 µg/mL in experiment [23]. Besides, the MIC was 4 µg/mL (≈ 9.29 µM) in the experiment on Staphylococcus aureus [28], above 16 µg/mL in the experiment with Pseudomonas aeruginosa [20], 1 µg/mL (≈ 2.32 µM) in the experiment with Enterococcus faecalis [21] and 1 µg/mL (≈ 2.32 µM) against Enterococcus faecalis [22].

Regarding `O=C1O[C@@H](CN/C(S)=N/CCCO)CN1c1ccc(-n2nnc3ccccc32)c(F)c1`, the MIC result (in the experiment on Enterococcus faecalis [1]; with Enterococcus faecium [2]; in the experiment on Enterococcus faecalis [3]; in the experiment with Pseudomonas aeruginosa [4]; in [5]; in experiment [6]) was “inactive” each time. For the same molecule, the MIC entry (in the experiment with Bacillus pumilus [7]; in the experiment on Escherichia coli [8]; in experiment [9]; in the experiment with Staphylococcus aureus [10]; with Staphylococcus aureus [11]; in experiment [12]) was “inactive” throughout.

With `O=C1O[C@@H](C/N=C(\S)OCC(F)(F)C(F)F)CN1c1ccc(-n2nnc3ccccc32)c(F)c1`, the MIC result (with Enterococcus faecalis [1]; with Enterococcus faecium [2]; in the experiment on Enterococcus faecalis [3]; with Pseudomonas aeruginosa [4]; in [5]; in the experiment with Escherichia coli [19]) was “inactive” in each case. The MIC entry (in [6]; with Bacillus pumilus [7]; in experiment [9]; with Staphylococcus aureus [10]; with Staphylococcus aureus [11]; in [12]) was “inactive” each time.

Turning to `CO/C(S)=N/C[C@H]1CN(c2ccc(-n3nnc4ccccc43)c(F)c2)C(=O)O1`, the MIC with Enterococcus faecium [13] is 1 µg/mL (≈ 2.49 µM); against Staphylococcus aureus [14], 1 µg/mL (≈ 2.49 µM); in [15] it was 0.25 µg/mL (≈ 0.623 µM); in [16], 0.25 µg/mL (≈ 0.623 µM); with Staphylococcus aureus [17], 1 µg/mL (≈ 2.49 µM); with Escherichia coli [19] it was above 16 µg/mL. In addition, the MIC in experiment [23] is above 16 µg/mL; in the experiment on Pseudomonas aeruginosa [20], above 16 µg/mL; with Enterococcus faecalis [21], 1 µg/mL (≈ 2.49 µM); in the experiment with Enterococcus faecalis [22], 1 µg/mL (≈ 2.49 µM); in the experiment with Bacillus pumilus [24], above 16 µg/mL.
